Among the data in the supplement of paper PMC10307832 are relative viability values, retold here.

One experiment deals with ABC-1. Briefly: relative viability (nuclei count vs DMSO), 5 days (fraction); higher = more cells survive. The settings on record: first compound 0.08 µM. Put shortly: (§1)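 Lung cancer cell lines in 1536-well plates got either a single drug or a fixed anchor-drug dose together with five library-drug doses (not always all listed) in √10 steps, by pin tool, on the day after seeding. Nuclei were counted after 5 days, and relative viability is the treated-to-vehicle ratio of nuclei counts. Values are medians of duplicate plates.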
For `CCCCCCCCCCCC1=C(O)C(=O)C=C(O)C1=O` [Embelin] + N=C(N)NC(=N)NCCc1ccccc1 [Phenformin] (partner 250 µM), the relative viability came out at 0.251.

For the compound `CCCCCCCCCCCC1=C(O)C(=O)C=C(O)C1=O` [Embelin] + CCNC(=O)c1noc(-c2cc(C(C)C)c(O)cc2O)c1-c1ccc(CN2CCOCC2)cc1 [Luminespib] (partner 0.01 µM), the relative viability amounted to 0.546.

Consider `CCCCCCCCCCCC1=C(O)C(=O)C=C(O)C1=O` [Embelin] + Cc1nc(Nc2ncc(C(=O)Nc3c(C)cccc3Cl)s2)cc(N2CCN(CCO)CC2)n1 [Dasatinib] (partner 0.075 µM), for which the relative viability was 0.575.

As to `CCCCCCCCCCCC1=C(O)C(=O)C=C(O)C1=O` [Embelin] + COc1cccc2cc(-c3nc([C@H]4CC[C@H](C(=O)O)CC4)n4ncnc(N)c34)[nH]c12 [OSI-027] (partner 0.5 µM), the relative viability turned out to be 0.58.

Staying with this experiment, now noted: first compound 0.8 µM.
On to `CCCCCCCCCCCC1=C(O)C(=O)C=C(O)C1=O` [Embelin] + N=C(N)NC(=N)NCCc1ccccc1 [Phenformin] (partner 250 µM), for which the relative viability came out at 0.237.

`CCCCCCCCCCCC1=C(O)C(=O)C=C(O)C1=O` [Embelin] + CCNC(=O)c1noc(-c2cc(C(C)C)c(O)cc2O)c1-c1ccc(CN2CCOCC2)cc1 [Luminespib] (partner 0.01 µM) registered a relative viability of 0.841.

The compound `CCCCCCCCCCCC1=C(O)C(=O)C=C(O)C1=O` [Embelin] + Cc1nc(Nc2ncc(C(=O)Nc3c(C)cccc3Cl)s2)cc(N2CCN(CCO)CC2)n1 [Dasatinib] (partner 0.075 µM) displayed a relative viability of 0.657.

As to `CCCCCCCCCCCC1=C(O)C(=O)C=C(O)C1=O` [Embelin] + COc1cccc2cc(-c3nc([C@H]4CC[C@H](C(=O)O)CC4)n4ncnc(N)c34)[nH]c12 [OSI-027] (partner 0.5 µM), the relative viability stood at 0.646.

Still in this experiment, the particulars now being: first compound 2.53 µM.
The compound `CCCCCCCCCCCC1=C(O)C(=O)C=C(O)C1=O` [Embelin] + N=C(N)NC(=N)NCCc1ccccc1 [Phenformin] (partner 250 µM) registered a relative viability of 0.256.

`CCCCCCCCCCCC1=C(O)C(=O)C=C(O)C1=O` [Embelin] + CCNC(=O)c1noc(-c2cc(C(C)C)c(O)cc2O)c1-c1ccc(CN2CCOCC2)cc1 [Luminespib] (partner 0.01 µM) showed a relative viability of 0.913.

`CCCCCCCCCCCC1=C(O)C(=O)C=C(O)C1=O` [Embelin] + Cc1nc(Nc2ncc(C(=O)Nc3c(C)cccc3Cl)s2)cc(N2CCN(CCO)CC2)n1 [Dasatinib] (partner 0.075 µM) registered a relative viability of 0.528.

`CCCCCCCCCCCC1=C(O)C(=O)C=C(O)C1=O` [Embelin] + COc1cccc2cc(-c3nc([C@H]4CC[C@H](C(=O)O)CC4)n4ncnc(N)c34)[nH]c12 [OSI-027] (partner 0.5 µM) returned a relative viability of 0.472.

The experiment is the same for the next values; noted with them: first compound 8 µM.
On to `CCCCCCCCCCCC1=C(O)C(=O)C=C(O)C1=O` [Embelin] + N=C(N)NC(=N)NCCc1ccccc1 [Phenformin] (partner 250 µM), for which the relative viability came to 0.194.

For the compound `CCCCCCCCCCCC1=C(O)C(=O)C=C(O)C1=O` [Embelin] + CCNC(=O)c1noc(-c2cc(C(C)C)c(O)cc2O)c1-c1ccc(CN2CCOCC2)cc1 [Luminespib] (partner 0.01 µM), the relative viability was 0.825.

Turning to `CCCCCCCCCCCC1=C(O)C(=O)C=C(O)C1=O` [Embelin] + Cc1nc(Nc2ncc(C(=O)Nc3c(C)cccc3Cl)s2)cc(N2CCN(CCO)CC2)n1 [Dasatinib] (partner 0.075 µM), the relative viability came out at 0.53.

`CCCCCCCCCCCC1=C(O)C(=O)C=C(O)C1=O` [Embelin] + COc1cccc2cc(-c3nc([C@H]4CC[C@H](C(=O)O)CC4)n4ncnc(N)c34)[nH]c12 [OSI-027] (partner 0.5 µM) came in with a relative viability of 0.552.

A further experiment concerns EMC-BAC-2. The description is as above. The following applies: first compound 0.08 µM. Put shortly: as §1
`CCCCCCCCCCCC1=C(O)C(=O)C=C(O)C1=O` [Embelin] + N=C(N)NC(=N)NCCc1ccccc1 [Phenformin] (partner 250 µM): the relative viability was 0.56.

Compound `CCCCCCCCCCCC1=C(O)C(=O)C=C(O)C1=O` [Embelin] + CCNC(=O)c1noc(-c2cc(C(C)C)c(O)cc2O)c1-c1ccc(CN2CCOCC2)cc1 [Luminespib] (partner 0.01 µM) returned a relative viability of 1.14.

As for `CCCCCCCCCCCC1=C(O)C(=O)C=C(O)C1=O` [Embelin] + Cc1nc(Nc2ncc(C(=O)Nc3c(C)cccc3Cl)s2)cc(N2CCN(CCO)CC2)n1 [Dasatinib] (partner 0.075 µM), the relative viability worked out at 0.304.

For `CCCCCCCCCCCC1=C(O)C(=O)C=C(O)C1=O` [Embelin] + COc1cccc2cc(-c3nc([C@H]4CC[C@H](C(=O)O)CC4)n4ncnc(N)c34)[nH]c12 [OSI-027] (partner 0.5 µM), the relative viability amounted to 0.375.

Compound `CCCCCCCCCCCC1=C(O)C(=O)C=C(O)C1=O` [Embelin] + Nc1nc2[nH]cc(CCc3ccc(C(=O)N[C@@H](CCC(=O)O)C(=O)O)cc3)c2c(=O)[nH]1 [Pemetrexed] (partner 0.2 µM) displayed a relative viability of 0.472.

The same experiment, now with this note: first compound 0.8 µM.
The compound `CCCCCCCCCCCC1=C(O)C(=O)C=C(O)C1=O` [Embelin] + N=C(N)NC(=N)NCCc1ccccc1 [Phenformin] (partner 250 µM) registered a relative viability of 0.669.

Consider `CCCCCCCCCCCC1=C(O)C(=O)C=C(O)C1=O` [Embelin] + CCNC(=O)c1noc(-c2cc(C(C)C)c(O)cc2O)c1-c1ccc(CN2CCOCC2)cc1 [Luminespib] (partner 0.01 µM), for which the relative viability turned out to be 1.38.

Take `CCCCCCCCCCCC1=C(O)C(=O)C=C(O)C1=O` [Embelin] + Cc1nc(Nc2ncc(C(=O)Nc3c(C)cccc3Cl)s2)cc(N2CCN(CCO)CC2)n1 [Dasatinib] (partner 0.075 µM): the relative viability was 0.46.

Turning to `CCCCCCCCCCCC1=C(O)C(=O)C=C(O)C1=O` [Embelin] + COc1cccc2cc(-c3nc([C@H]4CC[C@H](C(=O)O)CC4)n4ncnc(N)c34)[nH]c12 [OSI-027] (partner 0.5 µM), the relative viability amounted to 0.47.

`CCCCCCCCCCCC1=C(O)C(=O)C=C(O)C1=O` [Embelin] + Nc1nc2[nH]cc(CCc3ccc(C(=O)N[C@@H](CCC(=O)O)C(=O)O)cc3)c2c(=O)[nH]1 [Pemetrexed] (partner 0.2 µM) showed a relative viability of 0.53.

The same experiment, now with this note: first compound 2.53 µM.
`CCCCCCCCCCCC1=C(O)C(=O)C=C(O)C1=O` [Embelin] + N=C(N)NC(=N)NCCc1ccccc1 [Phenformin] (partner 250 µM): the relative viability was found to be 0.471.

With `CCCCCCCCCCCC1=C(O)C(=O)C=C(O)C1=O` [Embelin] + CCNC(=O)c1noc(-c2cc(C(C)C)c(O)cc2O)c1-c1ccc(CN2CCOCC2)cc1 [Luminespib] (partner 0.01 µM), the relative viability was determined as 1.22.

On to `CCCCCCCCCCCC1=C(O)C(=O)C=C(O)C1=O` [Embelin] + Cc1nc(Nc2ncc(C(=O)Nc3c(C)cccc3Cl)s2)cc(N2CCN(CCO)CC2)n1 [Dasatinib] (partner 0.075 µM), for which the relative viability was 0.341.

Take `CCCCCCCCCCCC1=C(O)C(=O)C=C(O)C1=O` [Embelin] + COc1cccc2cc(-c3nc([C@H]4CC[C@H](C(=O)O)CC4)n4ncnc(N)c34)[nH]c12 [OSI-027] (partner 0.5 µM): the relative viability was determined as 0.349.
